Reference: patent US20100173931A1, “HARMINE DERIVATIVES FOR REDUCING BODY WEIGHT” (OsteoGeneX Inc., priority 2009, published 2010)

Test: Reduction of body weight with harmine in mice (intraperitoneal injection, 4 weeks)
Type: in vivo
Details: intraperitoneal in saline, 4 weeks (30 days), initial body weight 30 g
Method: In order to determine the effect of harmine and harmine derivatives in reducing body weight, we administered harmine to mice and tracked their body weights for 4 weeks (30 days). Harmine was solublized in saline and administered via intraperitoneal injection. Animals were weighed weekly.
Mice (6 per group) were divided into seven groups and given one of the following treatments: • 1. 5 mg harmine/kg body weight (Low) • 2. 10 mg harmine/kg body weight (Med) • 3. 20 mg harmine/kg body weight (High) • 4. Saline • 5. 3 mg/kg body weight (Positive control 2) • 6. 5 mg/kg body weight (Positive control low) • 7. 10 mg/kg body weight (Positive control high)
Even at the low dose, the animals lost more than 5% of their body weight.

## COc1ccc2c(c1)[nH]c1c(C)nccc12 [harmine]
Highest dose 20 mg harmine/kg body weight
  reduction in body weight: 6%
Low dose 5 mg harmine/kg body weight
  reduction in body weight: more than 5%
